From US20240041042A1, “1-(PYRIDYL)-5-AZINYLPYRAZOLE DERIVATIVES, AND THEIR USE FOR CONTROL OF UNDESIRED PLANT GROWTH” (Bayer Aktiengesellschaft, priority 2020, published 2024)
Read-outs that look alike come from different tables or passages of the source.

Tests used:
Type in all cases: in vivo
[1] = test system: Abutilon theophrasti (ABUTH); experiment: Post-emergence herbicidal action against ABUTH; details: 320 g/ha, visual rating about 3 weeks after treatment vs untreated controls (100% = plants have died, 0% = like control plants)
Experimental: (§1) Seeds of monocotyledonous and dicotyledonous weeds and crop plants are placed in sandy loam in plastic or organic planting pots, covered with soil and cultivated in a greenhouse under controlled growth conditions. 2 to 3 weeks after sowing, the test plants are treated at the one-leaf stage. The compounds of the invention, formulated in the form of wettable powders (WP) or as emulsion concentrates (EC), are then sprayed onto the green parts of the plants as aqueous suspension or emulsion with addition of 0.5% additive at a water application rate of 600 l/ha (converted). After the test plants have been kept in the greenhouse under optimum growth conditions for about 3 weeks, the activity of the preparations is rated visually in comparison to untreated controls. For example, 100% activity=the plants have died, 0% activity=like control plants.
(§2) Tables B1 to B13 below show the effects of selected compounds of the general formula (I) according to Table 1 on various harmful plants and at an application rate corresponding to 320 g/ha or lower, which were obtained by the experimental procedure mentioned above. The appendices “a”, “b” and “c” give differentiation by dosage used with otherwise the same harmful plants tested.

[2] = test system: Matricaria inodora (MATIN); experiment: Pre-emergence herbicidal action against MATIN
Text: (§3) Seeds of monocotyledonous and dicotyledonous weed plants and crop plants are placed in plastic or organic planting pots and covered with soil. The compounds of the invention, formulated in the form of wettable powders (WP) or as emulsion concentrates (EC), are then applied to the surface of the covering soil as aqueous suspension or emulsion with addition of 0.5% additive at a water application rate equivalent to 600 l/ha. After the treatment, the pots are placed in a greenhouse and kept under good growth conditions for the trial plants. After about 3 weeks, the effect of the preparations is scored visually in comparison with untreated controls as percentages. For example, 100% activity=the plants have died, 0% activity=like control plants.
(§4) Tables A1 to A13 below show the effects of selected compounds of the general formula (I) on various harmful plants and at an application rate corresponding to 320 g/ha or lower, which were obtained by the experimental procedure mentioned above. The appendices “a”, “b” and “c” give differentiation by dosage used with otherwise the same harmful plants tested.

Avena fatua (AVEFA) [3] = experiment: Pre-emergence herbicidal action against AVEFA; details: visual scoring after about 3 weeks vs untreated controls
Text: as §3, §4

Lolium rigidum (LOLRI) [4] = experiment: Post-emergence herbicidal action against LOLRI
Experimental: as §1, §2

[5] = test system: Verconica persica (VERPE); experiment: Post-emergence herbicidal action against VERPE
Experimental: as §1, §2

[6] = test system: Polygonum convolvulus (POLCO); experiment: Pre-emergence herbicidal action against POLCO
Text: as §3, §4

Lolium rigidum (LOLRI) [7] = experiment: Pre-emergence herbicidal action against LOLRI
Text: as §3, §4

[8] = test system: Echinochloa crus-galli (ECHCG); experiment: Pre-emergence herbicidal action against ECHCG; details: dosage 320 g/ha
Text: as §3, §4

[9] = test system: Amaranthus retroflexus (AMARE); experiment: Post-emergence herbicidal action against AMARE
Experimental: as §1, §2

[10] = test system: Polygonum convolvulus (POLCO); experiment: Post-emergence herbicidal action against POLCO; details: dosage 320 g/ha
Experimental: as §1, §2

[11] = test system: Alopecurus myosuroides (ALOMY); experiment: Pre-emergence herbicidal action against ALOMY; details: scored visually after about 3 weeks, 100% = plants have died
Text: as §3, §4

Setaria viridis (SETVI) [12] = experiment: Pre-emergence herbicidal action against SETVI
Text: as §3, §4

[13] = test system: Amaranthus retroflexus (AMARE); experiment: Pre-emergence herbicidal action against AMARE; details: visual scoring after about 3 weeks vs untreated controls
Text: as §3, §4

Viola tricolor (VIOTR) [14] = experiment: Pre-emergence herbicidal action against VIOTR
Text: as §3, §4

Setaria viridis (SETVI) [15] = experiment: Post-emergence herbicidal action against SETVI
Experimental: as §1, §2

[16] = test system: Verconica persica (VERPE); experiment: Pre-emergence herbicidal action against VERPE
Text: as §3, §4

[17] = test system: Pharbitis purpurea (PHBPU); experiment: Post-emergence herbicidal action against PHBPU
Experimental: as §1, §2

Viola tricolor (VIOTR) [18] = experiment: Post-emergence herbicidal action against VIOTR; details: 320 g/ha
Experimental: as §1, §2

[19] = test system: Alopecurus myosuroides (ALOMY); experiment: Post-emergence herbicidal action against ALOMY; details: visual rating about 3 weeks after treatment vs untreated controls (100% = plants have died, 0% = like control plants)
Experimental: as §1, §2

Oryza sativa (ORYSA) = details: crop plant compatibility
Experimental: as §1
(§5) The observed effects on selected crop plants are reported here in comparison to the untreated controls (values in %). The appendices “a”, “b” and “c” give differentiation by dosage used with otherwise the same crop plants tested.

Avena fatua (AVEFA) [20] = experiment: Post-emergence herbicidal action against AVEFA; details: visual rating about 3 weeks after treatment
Experimental: as §1, §2

[21] = test system: Echinochloa crus-galli (ECHCG); experiment: Post-emergence herbicidal action against ECHCG
Experimental: as §1, §2

Zea mays (ZEAMX) = details: for Post-emergence action against ZEAMX in % (crop plant compatibility): 20 g/ha, effect in comparison to untreated controls; for Post-emergence action against ZEAMX in %: crop plant compatibility, effect vs untreated controls
Experimental: as §1, §5

[22] = 320 g/ha, visual rating about 3 weeks after treatment
[23] = 80 g/ha, effect in comparison to untreated controls
[24] = 20 g/ha, effect vs untreated controls
[25] = 80 g/ha, visual rating about 3 weeks after treatment vs untreated controls (100% = plants have died, 0% = like control plants)

SMILES	Post-emergence action against ABUTH in % [1] [%]	Pre-emergence action against MATIN in % ([2]; dosage 320 g/ha) [%]	Pre-emergence action against AVEFA in % (Avena fatua (AVEFA) [3]; 80 g/ha) [%]	Pre-emergence action against AVEFA in % (Avena fatua (AVEFA) [3]; 320 g/ha) [%]	Pre-emergence action against POLCO in % ([6]; dosage 320 g/ha) [%]	Pre-emergence action against LOLRI in % (Lolium rigidum (LOLRI) [7]; dosage 80 g/ha) [%]	Pre-emergence action against LOLRI in % (Lolium rigidum (LOLRI) [7]; dosage 320 g/ha) [%]	Pre-emergence action against ECHCG in % [8] [%]	Pre-emergence action against ALOMY ([11]; 80 g/ha) [%]	Pre-emergence action against ALOMY ([11]; 320 g/ha) [%]	Pre-emergence action against SETVI in % (Setaria viridis (SETVI) [12]; dosage 320 g/ha) [%]	Pre-emergence action against AMARE in % ([13]; 80 g/ha) [%]	Pre-emergence action against AMARE in % ([13]; 320 g/ha) [%]	Pre-emergence action against VIOTR in % (Viola tricolor (VIOTR) [14]; 320 g/ha, Viola tricolor) [%]	Pre-emergence action against VIOTR in % (Viola tricolor (VIOTR) [14]; dosage 80 g/ha) [%]	Pre-emergence action against VERPE in % ([16]; dosage 320 g/ha) [%]	Post-emergence action against PHBPU in % ([17]; dosage 80 g/ha) [%]	Post-emergence action against ALOMY in % ([19]; 80 g/ha) [%]	Post-emergence action against ORYSA in % (Oryza sativa (ORYSA); [23]) [%]	Post-emergence action against AVEFA in % (Avena fatua (AVEFA) [20]; 80 g/ha) [%]	also measured
C[C@@H](Oc1nn(-c2nc(F)ccc2F)c(-c2ccc(F)nc2)c1Br)C(=O)O [Example I-333]	80	90	80	90	90	80	100	90	90	100	90	90	100	100	100	100	80	90	20	80	Pre-emergence action against MATIN in % ([2]; dosage 80 g/ha): 80%; Post-emergence action against LOLRI in % (Lolium rigidum (LOLRI) [4]; dosage 320 g/ha): 90%; Post-emergence action against VERPE in % ([5]; 320 g/ha, VERPE): 90%; Pre-emergence action against POLCO in % ([6]; dosage 80 g/ha): 90%; Post-emergence action against AMARE in % [9, 22]: 80%; Post-emergence action against POLCO in % [10]: 80%; Post-emergence action against SETVI in % (Setaria viridis (SETVI) [15]; dosage 320 g/ha): 80%; Post-emergence action against PHBPU in % ([17]; dosage 320 g/ha): 90%; Post-emergence action against VIOTR in % (Viola tricolor (VIOTR) [18]): 80%; Post-emergence action against ALOMY in % ([19]; 320 g/ha): 90%; Post-emergence action against AVEFA in % (Avena fatua (AVEFA) [20]; 320 g/ha): 90%; Post-emergence action against ECHCG in % ([21]; dosage 80 g/ha): 80%; Post-emergence action against ECHCG in % ([21]; dosage 320 g/ha): 90%
COCCOCCOC(=O)[C@@H](C)Oc1nn(-c2ncccc2F)c(-c2ccc(F)nc2)c1Br [Example I-34]	–	90	80	90	90	90	100	100	90	100	100	100	100	100	100	100	80	90	20	90	Post-emergence action against LOLRI in % (Lolium rigidum (LOLRI) [4]; dosage 80 g/ha): 80%; Post-emergence action against VERPE in % ([5]; dosage 80 g/ha): 90%; Pre-emergence action against POLCO in % ([6]; dosage 80 g/ha): 80%; Pre-emergence action against SETVI in % (Setaria viridis (SETVI) [12]; dosage 80 g/ha): 90%; Pre-emergence action against VERPE in % ([16]; dosage 80 g/ha): 90%; Post-emergence action against ZEAMX in % (crop plant compatibility) (Zea mays (ZEAMX)): 10%; Post-emergence action against ZEAMX in % (Zea mays (ZEAMX); 80 g/ha): 10%; Post-emergence action against ORYSA in % (Oryza sativa (ORYSA); [24]): 10%
CCOC(=O)[C@@H](C)Oc1nn(-c2ncccc2F)c(-c2ccc(F)nc2)c1F [Example I-320]	80	80	–	90	90	–	100	90	–	90	90	80	90	100	–	–	–	–	0	–	Post-emergence action against LOLRI in % (Lolium rigidum (LOLRI) [4]; dosage 320 g/ha): 90%; Post-emergence action against VERPE in % ([5]; 320 g/ha, VERPE): 90%; Post-emergence action against AMARE in % [9, 25]: 80%; Post-emergence action against AMARE in % [9, 22]: 80%; Post-emergence action against POLCO in % [10]: 80%; Post-emergence action against SETVI in % (Setaria viridis (SETVI) [15]; dosage 320 g/ha): 90%; Post-emergence action against PHBPU in % ([17]; dosage 320 g/ha): 80%; Post-emergence action against VIOTR in % (Viola tricolor (VIOTR) [18]): 80%; Post-emergence action against ALOMY in % ([19]; 320 g/ha): 100%; Post-emergence action against ZEAMX in % (Zea mays (ZEAMX); 80 g/ha): 0%; Post-emergence action against ZEAMX in % (Zea mays (ZEAMX); 320 g/ha): 20%; Post-emergence action against AVEFA in % (Avena fatua (AVEFA) [20]; 320 g/ha): 80%; Post-emergence action against ECHCG in % ([21]; dosage 320 g/ha): 90%
CCOC(=O)[C@@H](C)Oc1nn(-c2ccccn2)c(-c2ccc(F)nc2)c1Br [Example I-91]	–	90	–	100	–	100	100	100	90	100	100	90	100	100	90	100	80	90	20	90	Post-emergence action against LOLRI in % (Lolium rigidum (LOLRI) [4]; dosage 80 g/ha): 90%; Post-emergence action against VERPE in % ([5]; dosage 80 g/ha): 80%; Post-emergence action against AMARE in % [9, 25]: 90%; Pre-emergence action against SETVI in % (Setaria viridis (SETVI) [12]; dosage 80 g/ha): 100%; Post-emergence action against SETVI in % (Setaria viridis (SETVI) [15]; dosage 80 g/ha): 80%; Post-emergence action against ZEAMX in % (crop plant compatibility) (Zea mays (ZEAMX)): 20%; Post-emergence action against ORYSA in % (Oryza sativa (ORYSA); [24]): 0%; Post-emergence action against ECHCG in % ([21]; dosage 80 g/ha): 80%
